Tests used:
Human MSCs = test: Chondrogenesis culture: cell number (PicoGreen); assay type: cell-based
Procedure: (§1) Chondrogenesis Culture. Cryopreserved MSCs were thawed and expanded in GM until 70-80% confluent. Cells were trypsininzed and then seeded on 6 mm diameter scaffold disks at 1.76×10^5 cells/cm^2 and cultured for 28 days in GM, chondrogenic induction medium (CCM), or CCM without insulin, according to previously published methods. CCM consisted of DMEM high glucose containing 4 mM L-glutamine (Invitrogen, Grand Island, N.Y., USA), 0.1 μM dexamethasone (Sigma-Aldrich), 0.17 mM ascorbic acid-2-phosphate (Wako Chemicals, Richmond, Va., USA), 1% ITS+(6.25 µg/mL insulin, 6.25 µg/mL transferrin, 6.25 ng/mL selenous acid, 5.35 μg/ml linoleic acid and 1.25 mg of bovine serum albumin) Premix Culture Supplement (Corning, Corning, N.Y., USA), 1× antibiotic-antimycotic, 1 mM sodium pyruvate (Sigma-Aldrich), 0.35 mM proline (Sigma-Aldrich), and 10 ng/mL recombinant human transforming growth factor-beta3 (TGF-β3, ProSpec, Israel). CCM without insulin consisted of CCM where the 1% ITS+Premix Culture Supplement was substituted with 1% stock solution (6.25 μg/ml transferrin and 6.25 ng/ml selenous acid, 5.35 μg/ml lionleic acid (Sigma-Aldrich) and 1.25 mg of bovine serum albumin (Fisher Scientific). Na2WO4 was added to all media leading to final Na2WO4 concentrations of 0, 0.01, 0.1 and 1 mM. Samples were harvested and analyzed for sulfated glycosaminoglycans (sGAG), cell number and gene expression at day 14 and 28 and for collagen type II and immunostaining at day 28.
Production of sGAG and cell number were determined. Samples were digested using papain (Sigma-Aldrich, Mo., USA) buffer overnight at 65 C. ° following manufacturer's protocol. The sGAG assay is used to measure the total sulfated proteoglycan content using Blyscan sGAG Assay Kit (Biocolor, UK). Cell lysate of samples (n=4 per group) and color reagent were combined in transparent 96-well plate and the absorbance at 656 nm was measured using a microplate spectrophotometer (EMax, Molecular Devices, Melville, N.Y., USA). sGAG concentration was determined relative to chondroitin sulfate standard curve. PicoGreen® ds DNA assay (Life Technologies) was used to determine the cell number. MSCs of known cell number were used as standards. Standards were prepared by lysing the cells using papain buffer. The cell lysate of samples and standards (n=4 per group) was mixed with an equal volume of Pico Green reagent. Fluorescence intensity was measured with a microplate reader ((FLX800, Biotek Instruments, Vt., USA)) at 480 nm excitation and 520 nm emission. A standard curve of known cell number was used to determine the sample cell number. GAG production was normalized to cell number.

PBMCs = test: CellTiter-Blue viability assay; assay type: cell-based, human; conditions: 0.01, 0.1 and 1 mM Na2WO4; 4 days exposure
Procedure: CellTiter-Blue Assay (Promega, Madison, Wis.) was used to assess the viability of PBMCs. Cell Titre Blue was used to measure the metabolic activity of PBMCs as a surrogate for cell number. Each experimental group was performed in triplicate in 96-well tissue culture plates. After 4 days, CellTiter-Blue reagent (20 μL/well) was added to each well. The plates were incubated and after 4 hours, the fluorescence intensity was measured with microplate reader (Synergy, HTX, BioTek, Winooski, Vt., USA) at 560/590 nm emission. Percent viability was calculated as the fluorescence reading of treated (stimulated) cells divided by untreated healthy cells, which were considered 100% viable as described in Greco et al..

collagen type II [1] = test: Chondrogenesis culture: gene expression by RT-PCR, collagen type II; assay type: cell-based, human; conditions: for collagen type II gene expression vs 0 and 1 mM groups: CCM without insulin, days 14 and 28; for collagen type II gene expression vs 0 mM: day 14
Procedure: as §1
Gene expression was evaluated using quantitative reverse transcription (RT)-polymerase chain reaction (PCR) analysis. RT-PCR was performed with RNeasy Micro Kit and SYBR Green RT-PCR Kit (Qiagen; Valencia, Calif., USA) using the MX4000 detection system (Stratagene) according to the manufacturer's protocol. Relative gene expression of SOX-9, aggrecan and collagen type II were determined. Samples (n=4 per group) were harvested and digested using Lysis Buffer. RNA was isolated from the samples using RNeasy Micro Kit (Qiagen) including DNA digestion step (RNase Free DNase Set; Qiagen). The RNA quantity and integrity were determined by measuring the absorbance at 260 nm and the absorbance ratio of 260 nm/280 nm, respectively, using Nanodrop™ Spectrophotometer (Thermo Fisher Scientific). Quantitative PCR analysis was performed using QuantiTect SYBR Green supermix including the QuantiTect Primer Assays. The reverse transcription step ran for 30 minutes at 50° C., 15 minutes at 95° C. of PCR activation followed by forty cycle of amplification consisting of 15 s denaturation at 94° C., 30 s of annealing at 55° C., and 30 s of extension at 72° C. A melting curve analysis of the RT-PCR product was included for each reaction. Samples were analyzed in triplicate and the value of each gene was normalized to the reference gene ribosomal protein, large, P0 (RPLP0) for the same sample (ΔCT). Primers were purchased from Qiagen (Hs_ACAN, QT00001365; Hs_SOX9, QT00001498; Hs_COL2A1, QT00049518; and Hs_RPLP0 QT00075012).

collagen type II [2] = test: Collagen type II ELISA; assay type: cell-based, human; conditions: day 28
Procedure: as §1
Collagen type II production was quantified by enzyme-linked immunosorbent assay (ELISA) using a collagen type II detection kit (Chondrex Inc. Redmond, Wash., USA). The ELISA was conducted following the manufacturer's instructions. Briefly, samples (n=4 per group) were harvested at day 28 and washed with PBS. Collagen was digested by adding pepsin solution (0.1 mg/ml in 0.05 M acetic acid) at 4 C° for two days with gentle mixing. The digested samples were centrifuged for 3 minutes and supernatants were collected. Pancreatic elastase was added to the samples and incubated overnight at 4° C. Supernatants were then collected. The ELISA plate which was coated with collagen type II was prepared as described by the manufacturer and the absorbance at 490 nm was measured using a microplate spectrophotometer (Emax, Molecular Devices). The collagen type II production was determined relative to the standard curve.

[3] = Sodium tungstate in the scaffold: cell and tissue growth, cytocompatibility; assay type: cell-based; conditions: 0.01-5 weight (wt.) % sodium tungstate in the scaffold

In the case of `[Na+].[Na+].[O]=[W](=[O])([O-])[O-]` [Na2WO4, sodium tungstate], the “cell number vs 0.1 mM” value (Human MSCs; 0.01 mM Na2WO4, CCM, day 28, p<0.05) is reported as “significantly higher than 0.1 mM”, the “cell number vs 0 mM” value (Human MSCs; 0.1 mM Na2WO4, GM, day 14) is reported as “significantly higher” and the “cell number vs other groups” value (Human MSCs; 1 mM Na2WO4, CCM) is reported as “significantly lower”. For the same compound, the “cell number vs all other groups” value (Human MSCs; 1 mM Na2WO4, CCM without insulin, day 28) was “significantly lower cell numbers”, the “PBMC cell viability vs 0 mM” value (PBMCs) was “No significant differences in cell viability” and the “collagen type II gene expression, change between days 14 and 28” value (collagen type II [1]; 0.01 mM Na2WO4, CCM) was “significant increase in collagen type II expression”. For the same compound, the “collagen type II gene expression vs 0 and 1 mM groups” value (collagen type II [1]; 0.01 mM Na2WO4) was “significantly higher”, the “collagen type II gene expression vs 0 mM” value (collagen type II [1]; 0.01 mM Na2WO4, CCM, p<0.001) was “significantly higher collagen type II” and the “collagen type II gene expression vs all groups” value (collagen type II [1]; 0.01 mM Na2WO4, CCM, day 28, p<0.001) was “significantly higher”. The “collagen type II gene expression vs 0 and 1 mM groups” value (collagen type II [1]; 0.1 mM Na2WO4) was “significantly higher”, the “collagen type II gene expression vs 0 mM” value (collagen type II [1]; 0.1 mM Na2WO4, CCM, p<0.001) was “significantly higher collagen type II” and the “collagen type II gene expression” value (collagen type II [1]; 1 mM Na2WO4, CCM) was “lowest gene expression”. The “collagen type II gene expression (chondrogenic genes)” value (collagen type II [1]; GM with Na2WO4) was “no significant upregulation of chondrogenic genes”, the “collagen type II production vs all other groups” value (collagen type II [2]; 0.01 mM Na2WO4, CCM, p<0.001) was “highest collagen type II” and the “collagen type II production vs 0 mM group” value (collagen type II [2]; 0.01 mM Na2WO4, GM, p<0.05) was “significantly higher collagen type II”. For the same compound, the “collagen type II production vs 0 mM and 1 mM” value (collagen type II [2]; 0.1 mM Na2WO4, CCM, p<0.001) was “significantly higher collagen type II production”, the “collagen type II production” value (collagen type II [2]; 1 mM Na2WO4, CCM, p<0.001) was “lowest” and the “collagen type II production” value (collagen type II [2]; CCM without insulin groups) was “not detected”. For the same compound, the “cell and tissue growth and cytocompatibility” value [3] was “promoted excellent cell and tissue growth results and cytocompatibility results”.

— US10772909B2, “System and method for insulin-mimetic of cartilage, bone, or osteochondral repair and piezoelectric composite scaffold” (New Jersey Institute of Technology, priority 2016, dated 2020)
